Data: patent US20260167623A1 (NIKANG THERAPEUTICS, INC., priority 2022, published 2026)

What was measured:
CDK2 [1] = molecular target: T1, CDK2 (Homo sapiens, UniProt P24941); assay: Inhibition of CDK2: phospho-Rb (S807/811) HTRF measurement in OVCAR3 cells, 24 h; type: cell-based; settings: 24 h compound treatment, read-out: pRB_OVCAR3_24h
T1 construct: High-Throughput Measurement of Cellular Endogenous CDK2; endogenous in cells; host or cells: OVCAR3
Procedure, shortened: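 IC50 came from a four-parameter fit of DMSO-normalized TR-FRET ratios (665/620 nm) reporting phospho-Rb S807/811. Lysates were taken from OVCAR3 cultures treated 24 h with compound (0.3 to 10,000 nM) and incubated 4 h at room temperature with the antibody pair.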

CDK2 [2] = molecular target: T1, CDK2; assay: High-throughput HTRF measurement of cellular endogenous CDK2 level (degradation, DC50/Dmax) in OVCAR3 cells, 6 h; type: cell-based; settings: 6 h compound treatment, HTRF total CDK2, read-out: DC50_OVCAR3_6h
Procedure, shortened: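 DC50 and Dmax were derived by four-parameter logistic fit of the […] TR-FRET ratio, scaled between DMSO (0% degradation) and lysis buffer (100%) controls. The ratio came from an HTRF total-CDK2 sandwich immunoassay on lysates of OVCAR3 cells given 0.03–1,000 nM compound for 6 hours.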

| Structure (SMILES) | IC50 (CDK2 [1]) [nM] | DC50 (CDK2 [2]) [nM] |
| --- | --- | --- |
| CC(c1cccc(S(=O)(=O)N2CCC(Nc3ncc(Cl)cn3)CC2)c1)N1CCC(c2ccc3c(N4CCC(=O)NC4=O)nn(C)c3c2)CC1 (stereo not shown) [Example 38] | 100 to 500 | 10 to 100 |
| O=C1CCC(N2Cc3cc(N4CCC(N5CC(Oc6cccc(S(=O)(=O)N7CCC(Nc8ncc(C(F)(F)F)cn8)CC7)c6)C5)CC4)ccc3C2=O)C(=O)N1 (stereo not shown) [Example 92, 3-(1-oxo-5-(4-(3-(3-((4-((5-(trifluoro-methyl)pyrimidin-2-yl)amino)piperidin-1-yl)sulfonyl)phenoxy)azetidin-1-yl)piperidin-1-yl)isoindolin-2-yl)piperidine-2,6-dione] | 100 to 500 | 1 to 10 |
| Cn1nc(N2CCC(=O)NC2=O)c2ccc(C3CCN(Cc4cccc(S(=O)(=O)N5CC[C@H](Nc6ncc(Cl)cn6)[C@H](F)C5)c4)CC3)cc21 [Example 27] | 100 to 500 | 10 to 100 |
| Cn1c(=O)n(C2CCC(=O)NC2=O)c2cccc(C3CCN(CC4CCN(c5cc(F)cc(S(=O)(=O)N6CCC(Nc7ncc(OC(F)F)cn7)CC6)c5)CC4)CC3)c21 (stereo not shown) [Example 174, 3-(4-(1-((1-(3-((4-((5-(difluoromethoxy)pyrimidin-2-yl)amino)piperidin-1-yl)sulfonyl)-5-fluorophenyl)piperidin-4-yl)methyl)piperidin-4-yl)-3-methyl-2-oxo-2,3-dihydro-1H-benzo[d]imidazol-1-yl)piperidine-2,6-dione] | 1 to 100 | 1 to 10 |
| Cn1c(=O)n(C2CCC(=O)NC2=O)c2cccc(C3CCN(CC4CCN(c5cccc(S(=O)(=O)N6CCC(Nc7ncc(C(F)(F)F)cn7)CC6)c5)CC4)CC3)c21 (stereo not shown) [Example 107, 3-(3-methyl-2-oxo-4-(1-((1-(3-((4-((5-(trifluoromethyl)pyrimidin-2-yl)amino)-piperidin-1-yl)sulfonyl)phenyl)piperidin-4-yl)methyl)piperidin-4-yl)-2,3-dihydro-1H-benzo[d]imidazol-1-yl)piperidine-2,6-dione] | 1 to 100 | 1 to 10 |
| Cn1nc(-n2ccc(=O)[nH]c2=O)c2ccc(C3CCN(CC4CCN(c5cccc(S(=O)(=O)N6CCC(Nc7ncc(C(F)(F)F)cn7)CC6)c5)CC4)CC3)cc21 [Example 211, 1-(1-methyl-6-(1-((1-(3-((4-((5-(trifluoromethyl)pyrimidin-2-yl)amino)piperidin-1-yl)sulfonyl)phenyl)piperidin-4-yl)methyl)piperidin-4-yl)-1H-indazol-3-yl)pyrimidine-2,4(1H,3H)-dione] | 1 to 100 | 1000 to 5000 |
| O=C1CCN(c2noc3cc(C4CCN(CC5CCN(c6cccc(S(=O)(=O)N7CCC(Nc8ncc(C(F)(F)F)cn8)CC7)c6)CC5)CC4)ccc23)C(=O)N1 [Example 222, 1-(6-(1-((1-(3-((4-((5-(trifluoromethyl)pyrimidin-2-yl)amino)piperidin-1-yl)sulfonyl)phenyl)piperidin-4-yl)methyl)piperidin-4-yl)benzo[d]isoxazol-3-yl)dihydropyrimidine-2,4(1H,3H)-dione] | 1 to 100 | 1 to 10 |
| Cn1nc(N2CCC(=O)NC2=O)c2cc(F)c(C3CCN(Cc4cccc(S(=O)(=O)N5CCC(Nc6ncc(OC(F)F)cn6)CC5)c4)CC3)cc21 [Example 77, 1-(6-(1-(3-((4-((5-(difluoromethoxy)-pyrimidin-2-yl)amino)piperidin-1-yl)sulfonyl)benzyl)piperidin-4-yl)-5-fluoro-1-methyl-1H-indazol-3-yl)dihydropyrimidine-2,4(1H,3H)-dione] | 1 to 100 | 1 to 10 |
| Cn1nc(N2CCC(=O)NC2=O)c2ccc(C3CCN(CC4CCN(c5cc(F)cc(S(=O)(=O)N6CCC(Nc7ncc(Cl)cn7)CC6)c5)CC4)CC3)cc21 [Example 147, 1-(6-(1-((1-(3-((4-((5-chloropyrimidin-2-yl)amino)piperidin-1-yl)sulfonyl)-5-fluorophenyl)piperidin-4-yl)methyl)piperidin-4-yl)-1-methyl-1H-indazol-3-yl)dihydropyrimidine-2,4(1H,3H)-dione] | 1 to 100 | 1 to 10 |
| Cn1nc(N2CCC(=O)NC2=O)c2ccc(C3CCN(Cc4ccc(S(=O)(=O)N5CCC(Nc6ncc(OC(F)F)cn6)CC5)cc4)CC3)cc21 [Example 241, 1-(6-(1-(4-((4-((5-(difluoromethoxy)pyrimidin-2-yl)amino)piperidin-1-yl)sulfonyl)benzyl)piperidin-4-yl)-1-methyl-1H-indazol-3-yl)dihydropyrimidine-2,4(1H,3H)-dione] | 1 to 100 | 1 to 10 |
| Cn1nc(N2CCC(=O)NC2=O)c2ccc(C3CCN(CC4(C)CCN(c5cccc(S(=O)(=O)N6CCC(Nc7ncc(Cl)cn7)CC6)c5)CC4)CC3)cc21 [Example 206, 1-(6-(1-((1-(3-((4-((5-chloropyrimidin-2-yl)amino)piperidin-1-yl)sulfonyl)phenyl)-4-methylpiperidin-4-yl)methyl)piperidin-4-yl)-1-methyl-1H-indazol-3-yl)dihydropyrimidine-2,4(1H,3H)-dione] | 1 to 100 | 10 to 100 |

Now from value to molecule:

| IC50 (CDK2 [1]) [nM] | DC50 (CDK2 [2]) [nM] | Structure (SMILES) |
| --- | --- | --- |
| 1 to 100 | 10 to 100 | Cn1nc(N2CCC(=O)NC2=O)c2ccc(C3CCN(Cc4cccc(S(=O)(=O)N5CCC(Nc6ncc(C(F)(F)F)cn6)CC5)c4)CC3)c(F)c21 [Example 2, 1-(7-fluoro-1-methyl-6-(1-(3-((4-((5-(trifluoromethyl)pyrimidin-2-yl)amino)piperidin-1-yl)sulfonyl)benzyl)-piperidin-4-yl)-1H-indazol-3-yl)dihydropyrimidine-2,4(1H,3H)-dione] |
| 1 to 100 | 10 to 100 | Cn1nc(N2CCC(=O)NC2=O)c2cc(F)c(C3CCN(Cc4cccc(S(=O)(=O)N5CCC(Nc6ncc(C(F)(F)F)cn6)CC5)c4)CC3)cc21 [Example 16, 1-(5-fluoro-1-methyl-6-(1-(3-((4-((5-(trifluoromethyl)pyrimidin-2-yl)amino)-piperidin-1-yl)sulfonyl)benzyl)piperidin-4-yl)-1H-indazol-3-yl)dihydropyrimidine-2,4(1H,3H)-dione] |
| 1 to 100 | 1 to 10 | Cn1nc(N2CCC(=O)NC2=O)c2ccc(C3CCN(CC4CCN(c5cccc(S(=O)(=O)N6CC[C@H](Nc7ncc(C(F)(F)F)cn7)[C@H](F)C6)c5)CC4)CC3)cc21 (racemic) [Example 223, Rac-1-(6-(1-((1-(3-(((3R,4S)-3-fluoro-4-((5-(trifluoromethyl)pyrimidin-2-yl)amino)piperidin-1-yl)sulfonyl)phenyl)piperidin-4-yl)methyl)piperidin-4-yl)-1-methyl-1H-indazol-3-yl)dihydropyrimidine-2,4(1H,3H)-dione] |
| 1 to 100 | 10 to 100 | Cn1c(S(=O)(=O)N2CCC(Nc3ncc(C(F)(F)F)cn3)CC2)cnc1CN1CCC(c2ccc3c(N4CCC(=O)NC4=O)nn(C)c3c2)CC1 [Example 47, 1-(1-methyl-6-(1-((1-methyl-5-((4-((5-(trifluoromethyl)pyrimidin-2-yl)amino)-piperidin-1-yl)sulfonyl)-1H-imidazol-2-yl)methyl)piperidin-4-yl)-1H-indazol-3-yl)dihydropyrimidine-2,4(1H,3H)-dione] |
| 1 to 100 | 1 to 10 | Cn1nc(N2CCC(=O)NC2=O)c2ccc(C3CCN(CC(C)(C)Cc4cccc(S(=O)(=O)N5CCC(Nc6ncc(Cl)cn6)CC5)c4)CC3)cc21 [Example 54, 1-(6-(1-(3-(3-((4-((5-chloropyrimidin-2-yl)amino)piperidin-1-yl)sulfonyl)phenyl)-2,2-dimethylpropyl)piperidin-4-yl)-1-methyl-1H-indazol-3-yl)dihydropyrimidine-2,4(1H,3H)-dione] |
| 1 to 100 | 1 to 10 | Cn1c(=O)n(C2CCC(=O)NC2=O)c2cccc(N3CCN(CC4CCN(c5cc(S(=O)(=O)N6CCC(Nc7ncc(Cl)cn7)CC6)ccc5C#N)CC4)CC3)c21 (stereo not shown) [Example 203, 4-((4-((5-chloropyrimidin-2-yl)amino)piperidin-1-yl)sulfonyl)-2-(4-((4-(1-(2,6-dioxopiperidin-3-yl)-3-methyl-2-oxo-2,3-dihydro-1H-benzo[d]imidazol-4-yl)piperazin-1-yl)methyl)piperidin-1-yl)benzonitrile] |
| 1 to 100 | 1 to 10 | Cn1nc(N2CCC(=O)NC2=O)c2ccc(C3CCN(CC4CCN(c5cccc(S(=O)(=O)N6CCC(Nc7ncc(Cl)cn7)CC6)c5)CC4)CC3)c(F)c21 [Example 95, 1-(6-(1-((1-(3-((4-((5-chloropyrimidin-2-yl)amino)piperidin-1-yl)sulfonyl)phenyl)-piperidin-4-yl)methyl)piperidin-4-yl)-7-fluoro-1-methyl-1H-indazol-3-yl)dihydropyrimidine-2,4(1H,3H)-dione] |
| 1 to 100 | 10 to 100 | Cn1nc(N2CCC(=O)NC2=O)c2ccc(C3CCN(CCCc4cccc(S(=O)(=O)N5CCC(Nc6ncc(OC(F)F)cn6)CC5)c4)CC3)cc21 [Example 86, 1-(6-(1-(3-(3-((4-((5-(difluoromethoxy)-pyrimidin-2-yl)amino)piperidin-1-yl)sulfonyl)phenyl)propyl)piperidin-4-yl)-1-methyl-1H-indazol-3-yl)dihydropyrimidine-2,4(1H,3H)-dione] |
| 1 to 100 | 100 to 1000 | Cn1nc(N2CCC(=O)NC2=O)c2ccc(C3CCN(CCc4cccc(S(=O)(=O)N5CCC(Nc6ncc(C(F)(F)F)cn6)CC5)c4)CC3)cc21 [Example 6, 1-(1-methyl-6-(1-(3-((4-((5-(trifluoromethyl)pyrimidin-2-yl)amino)-piperidin-1-yl)sulfonyl)phenethyl)piperidin-4-yl)-1H-indazol-3-yl)dihydropyrimidine-2,4(1H,3H)-dione] |
